# Test: Solubility and compatibility of lidocaine and lidocaine HCl at 40% w/w in solvent blends
# Format: physicochemical
# Details: two weeks at accelerated conditions versus initial
# Experimental: The solubility and compatibility of lidocaine and lidocaine HCl in solvents typically used in topical pharmaceutical products was assessed in order to direct the formulation development efforts.
# Initially, the solubility of lidocaine and lidocaine hydrochloride was evaluated in single solvents with varying lipophilicity. […] Based on the single solvent data, a compatibility study was initiated to evaluate the chemical stability of the drug at a concentration of 40% w/w in a variety of solvent blends that would form the base of potential prototype gel or cream formulations.
smiles,measurement,value
CCN(CC)CC(=O)Nc1c(C)cccc1C [lidocaine],Physical appearance and chemical compatibility in solvent blends,retained their physical appearance
